Test results from patent publication US10604481B2, “(Thio, oxo and seleno) semicarbazone complexes with zinc and their use for treating cancer” (RUTGERS, THE STATE UNIVERSITY OF NEW JERSEY, priority 2015, dated 2020).

What was measured:
[1] = Liposome import assay (RhodZin-3 in DOPC liposomes); conditions: for transport of Zn2+ into liposomes (rate of RZ-3 fluorescence increase): external [Zn2+]free 10 μM
Experimental: Zn^2+ alone was unable to permeate the liposomal membrane as indicated by the lack of RZ-3 fluorescence increase.
It can function as an ionophore in conditions of the liposome experiments where external [Zn^2+]free was 10 μM. However, in complete media containing 10% fetal bovine serum (FBS), Zn^2+-binding proteins from the serum (e.g. albumin) necessarily compete for Zn^2+ with any putative MC, making the effective [Zn^2+]free much lower than [Zn^2+]total.
DOPC-liposomes were prepared by film rehydration and extrusion followed by gel filtration and diluted to an OD600=0.06 in buffer. The size distribution of the liposomes was determined by dynamic light scattering (DLS) using a Malvern Zetasizer Nano ZS. Fluorescence measurements were taken on a Horiba Fluoromax-4 spectrofluorimeter in a 5×5 mm quartz cuvette with λex/λem=550/572 nm for RZ-3 and 490/515 nm for calcein. Initial Zn^2+ import/export was quantified by fitting the first 10-30 s of data after each treatment to a line and converted to units of flux using the following Eqn 1:
[formula] where Ji is the initial flux, ΔF/Δt is the slope of the fit line, Fmax is RZ-3 fluorescence in the presence of saturating Zn^2+ and 1% TritonX-100, Fmin is RZ-3 fluorescence in the presence of excess EDTA and 1% TritonX-100, [RZ3] is the concentration of encapsulated RZ-3, and SA/Vol is the surface area to volume ratio calculated assuming hollow spheres of the mean diameter determined by DLS. Intracellular [Zn^2+]free Imaging

[2] = system: HEK293 (non-cancer, p53-WT) cells; assay: Intracellular [Zn2+]free imaging with FluoZin-3-AM, HEK293; assay type: cell-based; conditions: for increase of intracellular [Zn2+]free (FZ3 fluorescence): HEK293, complete media
Experimental: To minimize the potential for Zn^2+ contamination and contributions from poorly defined elements in complete media (e.g. FBS), cells were treated and imaged in Ca^2+ and Mg^2+-free Earle's Balanced Salt Solution supplemented with 10 mM HEPES pH 7.4 (EBSS/H (−)Ca/Mg). Excess ZnCl2 with the Zn^2+ ionophore pyrithione (PYR) was used as a positive control. Excess membrane-permeable Zn^2+ chelator N,N,N′,N′-tetrakis(2-pyridylmethyl)ethane-1,2-diamine (TPEN) was used as a negative control.
To normalize for differential dye loading, cells were then sequentially treated with excess PYR/ZnCl2, imaged, treated with TPEN, and imaged again. PYR/ZnCl2 and TPEN served to saturate and apoize the intracellular FZ3, respectively.
TOV112D or HEK293 cells (40,000 cells/well) were plated on either 8-well BD Falcon chambered culture slides (Corning Life Sciences) or 8-chambered #1.5 Nunc Lab-Tek II chambered coverglasses (Thermo Scientific) treated with poly-L-lysine. After 48 h, cells were washed 2×5 m in serum-free media and incubated with 1 μM FZ3-AM for 40 m at 37° C. Cells were then washed 2×5 m in either EBSS/H (−)Ca/Mg or phenol-red free DMEM+10% FBS containing the indicated treatments for 20 m before imaging. For nuclear colocalization, 1 μg/mL Hoechst 33342 was also included. Cells were imaged using a Zeiss LSM510 META NLO confocal microscope equipped with 37° C. environmental control chamber. FZ3 and Hoechst 33342 were excited at 488 nm (argon laser) and 790 nm (Chameleon Ti:sapphire laser), respectively. To determine the kinetics of fluorescence change, each background-subtracted image in the time-lapse series was integrated in ImageJ and normalized to the integrated fluorescence of the first frame after treatment. For quantification of intracellular [Zn^2+]free, each cell was analyzed in the treated, 50 μM PYR/ZnCl2 (1:1), and 100 μM TPEN images by taking the mean fluorescence of an ROI inside the cell subtracted by an ROI immediately outside the cell measured in ImageJ. The [Zn^2+]free for each cell was then calculated by Eqn 2:
[formula] […] To minimize the effects of outliers the lowest and highest 5% of cells in each series were rejected, and the remaining values averaged to give the value from that experiment. The number of cells analyzed in each trial ranged from 54-163. For nuclear colocalization, treated, PYR/ZnCl2, and TPEN treated images costained with Hoechst 33342 were aligned and each pixel subjected to Eqn. 2 in MATLAB (MathWorks).

[3] = system: H1299 (p53-null); assay: Three day cell growth inhibition assay, H1299; assay type: cell-based, human; conditions: FIG. 2
[4] = system: H460 (p53-WT); assay: Three day cell growth inhibition assay, H460; assay type: cell-based, human; conditions: H460 (p53 wildtype), FIG. 2
[5] = Mouse survival, daily IP administration (Example 13); assay type: in vivo; conditions: mice, ZN1 5.6 mg/kg vs ZMC1 5 mg/kg IP daily, FIG. 5

| Molecule | Zn2+ export from liposomes (RZ-3 fluorescence) ([1]; excess EDTA outside the liposomes) | transport of Zn2+ into liposomes (rate of RZ-3 fluorescence increase) [1] | t1/2 of intracellular [Zn2+]free increase ([2]; HEK293, ZMC1 and ZnCl2, EBSS/H (−)Ca/Mg, mean±SD, n=4) [min] | increase of intracellular [Zn2+]free (FZ3 fluorescence) [2] | cell growth inhibition (cell killing) [3] | cell growth inhibition (cell killing) [4] | potency in vivo (survival) relative to monomer ZMC1 [5] |
| --- | --- | --- | --- | --- | --- | --- | --- |
| C/C(=N\NC(=S)N1CCC1)c1ccccn1 [Compound 6, (E)-N′-(1-(pyridin-2-yl)ethylidene)azetidine-1-carbothiohydrazide] | time dependent decrease in RZ-3 fluorescence | dose-dependent increase | 2.07 ± 0.333 | increased intracellular [Zn^2+]free | undisturbed | undisturbed | – |
| O=C(O)CN(CC(=O)O)CC(=O)O [NTA, reference compound] | – | did not | – | did not | – | – | – |
| C/C(=N\NC(=O)N1CCC1)c1ccccn1 [Compound 10, (E)-N′-(1-(pyridin-2-yl)ethylidene)azetidine-1-carbohydrazide] | – | shuttled Zn^2+ into the liposomes | – | did not | – | – | – |
| [Zn(ZMC1)2] [Compound 12] | – | – | – | – | – | – | greater potency |
